The target of test [1] is 3',5'-cyclic-AMP phosphodiesterase 4B (Homo sapiens, UniProt Q07343). As to the kind of experiment: Inhibition of human recombinant PDE4B2 assessed as decrease in cAMP hydrolysis preincubated with substrate prior to enzyme addition measured after 30 mins by colorimetric assay method.
In test [2] the target is Beta-2 adrenergic receptor (Cavia porcellus, UniProt Q8K4Z4). As to the kind of experiment: Agonist activity at beta2-adrenoceptor in guinea pig trachea assessed as relaxation of histamine-induced precontracted tracheal rings.
Chain of Beta-2 adrenergic receptor (Q8K4Z4 whole entry): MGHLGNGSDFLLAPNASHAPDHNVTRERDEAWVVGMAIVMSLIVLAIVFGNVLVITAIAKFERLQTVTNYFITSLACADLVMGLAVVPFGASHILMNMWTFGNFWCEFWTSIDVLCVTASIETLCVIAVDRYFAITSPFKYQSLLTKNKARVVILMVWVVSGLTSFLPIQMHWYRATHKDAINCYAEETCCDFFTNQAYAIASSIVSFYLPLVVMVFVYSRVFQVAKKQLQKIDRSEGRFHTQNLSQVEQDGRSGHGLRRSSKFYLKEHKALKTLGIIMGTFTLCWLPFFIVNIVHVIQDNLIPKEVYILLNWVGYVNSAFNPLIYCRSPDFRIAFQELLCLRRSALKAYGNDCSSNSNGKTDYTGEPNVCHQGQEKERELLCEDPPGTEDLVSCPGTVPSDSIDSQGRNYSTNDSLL
Test [3] has as its target Beta-2 adrenergic receptor (Cavia porcellus) (UniProt Q8K4Z4). Kind of test: Agonist activity at beta2-adrenoceptor in guinea pig trachea assessed as relaxation of histamine-induced precontracted tracheal rings treated 10 mins after histamine and beta2-adrenoceptor antagonist, ICI 118,551 addition.

Activity calls are given as the source filed them. No cut-off for these calls is given here.

Chain of 3',5'-cyclic-AMP phosphodiesterase 4B (Q07343 whole entry): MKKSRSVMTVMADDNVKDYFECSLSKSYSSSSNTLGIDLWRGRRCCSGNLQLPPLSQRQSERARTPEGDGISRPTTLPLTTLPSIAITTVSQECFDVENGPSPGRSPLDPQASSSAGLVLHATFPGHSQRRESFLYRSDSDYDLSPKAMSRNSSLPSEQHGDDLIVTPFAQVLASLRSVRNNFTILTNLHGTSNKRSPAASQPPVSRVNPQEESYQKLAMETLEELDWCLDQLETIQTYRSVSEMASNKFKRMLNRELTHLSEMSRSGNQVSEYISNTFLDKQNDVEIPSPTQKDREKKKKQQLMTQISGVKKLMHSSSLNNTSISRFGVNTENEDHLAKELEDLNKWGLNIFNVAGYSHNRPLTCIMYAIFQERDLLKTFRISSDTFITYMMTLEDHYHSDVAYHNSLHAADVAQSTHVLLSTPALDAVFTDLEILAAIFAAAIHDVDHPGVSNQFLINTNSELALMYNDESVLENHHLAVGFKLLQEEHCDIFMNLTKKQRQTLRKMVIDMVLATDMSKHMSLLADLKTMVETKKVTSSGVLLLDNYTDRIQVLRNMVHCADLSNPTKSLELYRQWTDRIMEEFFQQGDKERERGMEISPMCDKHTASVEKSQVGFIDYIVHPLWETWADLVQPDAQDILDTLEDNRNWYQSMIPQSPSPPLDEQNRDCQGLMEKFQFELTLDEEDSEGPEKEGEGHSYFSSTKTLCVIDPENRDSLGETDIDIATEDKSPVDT
Chain of Beta-2 adrenergic receptor (Cavia porcellus) (Q8K4Z4 whole entry, looked up): as the sequence (Q8K4Z4 whole entry) above

Regarding `COc1ccc(C(=O)Nc2c(Cl)cncc2Cl)cc1OCCCCCNCC(O)c1ccc(O)c(CO)c1` (centres undefined), the half-inhibitory concentration (IC50) in test [1] turned out to be 394 nM. Besides, the EC50 in test [2] is 1.95 nM.
Taken in the same sequence, the figures for `COc1ccc(C2=NN(CCCCNCC(O)c3ccc(O)c(CO)c3)C(=O)C3CCCCC23)cc1OC` (centres undefined) were 278 nM and 0.676 nM.
With `COc1ccc(C2=NN(CCCCCCNCC(O)c3ccc(O)c(CO)c3)C(=O)C3CCCCC23)cc1OC` (centres undefined), the IC50 in test [1] worked out at 263 nM. Besides, the concentration for a half-maximal effect (EC50) in test [2] is 0.631 nM. In addition, the result in test [3] was inactive.
Turning to `CC(C)NCC(O)c1ccc(O)c(O)c1` (centres undefined) [ISOPROTERENOL], the EC50 in test [2] is 28.8 nM.
Regarding `COc1ccc(C2=NN(CCNCC(O)c3ccc(O)c(CO)c3)C(=O)C3CCCCC23)cc1OC` (centres undefined), the IC50 in test [1] turned out to be 282 nM. Also, the EC50 in test [2] was 0.646 nM.
Consider `COc1ccc(C(=O)Nc2c(Cl)cncc2Cl)cc1OCCCCNCC(O)c1ccc(O)c(CO)c1` (centres undefined), for which the IC50 in test [1] was found to be 601 nM. Also, in test [2], the EC50 is 2.82 nM.
The like results for `COc1ccc(C(=O)Nc2c(Cl)cncc2Cl)cc1OCCCNCC(O)c1ccc(O)c(CO)c1` (centres undefined) were, in that order, 1090 nM and 3.39 nM.
For `COc1ccc(C(=O)Nc2c(Cl)cncc2Cl)cc1OCCCCCCNCC(O)c1ccc(O)c(CO)c1` (centres undefined), the IC50 in test [1] worked out at 235 nM. In addition, the EC50 in test [2] was 3.16 nM. Further, the result in test [3] was inactive.
Take `COc1ccc(C2=NN(CCCCCNCC(O)c3ccc(O)c(CO)c3)C(=O)C3CCCCC23)cc1OC` (centres undefined): the IC50 in test [1] amounted to 271 nM. For the same compound, in test [2], the EC50 was 0.832 nM.

The values above are taken from ChEMBL document CHEMBL2331273 (Bioorg Med Chem Lett, 2013).
